From PubChem BioAssay AID248 (DTP/NCI, 2004)
“And” between values parts separate entries of the source, which are not always exact repeats. Equal values may be shown once. Toxic doses and inconclusive results are not listed. No stated cut-off is given here; in the data, active means T/C of 150% or more; inactive means T/C below 125%.

System: L1210 leukemia ip in BDF1 mice, survival T/C
Assay: NCI In Vivo Anticancer Drug Screen. Data for tumor model L1210 Leukemia (intraperitoneal) in B6D2F1 (BDF1) mice
Details: endpoint: mean survival time, higher = longer survival
Method in brief: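 Tumor cells were implanted, animals were treated, and survival was followed. The result divides the treated measurement by the vehicle-control measurement.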

[1] = dose: 100.0 mg/kg/injection, schedule: Q01DX009 (ip), vehicle: Klucel (hydroxypropylcellulose) (HPC)
[2] = dose: 200.0 mg/kg/injection, schedule: Q01DX009 (ip), vehicle: Klucel (hydroxypropylcellulose) (HPC)
[3] = dose: 400.0 mg/kg/injection, schedule: Q01DX009 (ip), vehicle: Klucel (hydroxypropylcellulose) (HPC)
[4] = dose: 100.0 mg/kg/injection, schedule: Q01DX001 (ip), vehicle: saline
[5] = dose: 200.0 mg/kg/injection, schedule: Q01DX001 (ip), vehicle: saline
[6] = dose: 400.0 mg/kg/injection, schedule: Q01DX001 (ip), vehicle: saline
[7] = dose: 100.0 mg/kg/injection, schedule: Q04DX003 (ip), vehicle: Klucel (hydroxypropylcellulose) (HPC)
[8] = dose: 200.0 mg/kg/injection, schedule: Q04DX003 (ip), vehicle: Klucel (hydroxypropylcellulose) (HPC)
[9] = dose: 400.0 mg/kg/injection, schedule: Q04DX003 (ip), vehicle: Klucel (hydroxypropylcellulose) (HPC)
[10] = dose: 50.0 mg/kg/injection, schedule: Q01DX001 (ip), vehicle: saline
[11] = dose: 100.0 mg/kg/injection, schedule: Q01DX001 (ip), vehicle: Klucel (hydroxypropylcellulose) (HPC)
[12] = dose: 200.0 mg/kg/injection, schedule: Q01DX001 (ip), vehicle: Klucel (hydroxypropylcellulose) (HPC)
[13] = dose: 400.0 mg/kg/injection, schedule: Q01DX001 (ip), vehicle: Klucel (hydroxypropylcellulose) (HPC)

Measured: T/C

CSc1ncc2c(Cl)nn(C)c2n1
inactive: dose: 37.5 mg/kg/injection, schedule: Q01DX001 (ip), vehicle: Klucel (hydroxypropylcellulose) (HPC) 94 % of control | dose: 75.0 mg/kg/injection, schedule: Q01DX001 (ip), vehicle: Klucel (hydroxypropylcellulose) (HPC) 92 % of control | dose: 150.0 mg/kg/injection, schedule: Q01DX001 (ip), vehicle: Klucel (hydroxypropylcellulose) (HPC) 90 % of control

O=C(O)CCC1(CCC(=O)O)OCCO1.[Ag]
inactive: dose: 9.38 mg/kg/injection, schedule: Q01DX001 (ip), vehicle: other 97 % of control | dose: 18.75 mg/kg/injection, schedule: Q01DX001 (ip), vehicle: other 97 % of control | dose: 37.5 mg/kg/injection, schedule: Q01DX001 (ip), vehicle: other 100 % of control

CCCCCCCCCCCCCCCCCC[N+](C)=C1SCCS1
inactive: dose: 1.56 mg/kg/injection, schedule: Q01DX009 (ip), vehicle: Klucel (hydroxypropylcellulose) (HPC) 94 % of control | dose: 3.13 mg/kg/injection, schedule: Q01DX009 (ip), vehicle: Klucel (hydroxypropylcellulose) (HPC) 105 % of control | dose: 6.25 mg/kg/injection, schedule: Q01DX009 (ip), vehicle: Klucel (hydroxypropylcellulose) (HPC) 105 % of control

CCOC(=O)c1ccc(NC(=O)Oc2ccccc2C(=O)OC)cc1
inactive: [1] 96 % of control | [2] 97 % of control | [3] 93 % of control

NCCc1ccc(NC(=O)c2ccc(C(=O)Nc3ccc(CCN)cc3)c([N+](=O)[O-])c2)cc1
inactive: dose: 1.56 mg/kg/injection, schedule: Q01DX015 (ip), vehicle: methylcellulose (MC) 94 % of control | dose: 3.12 mg/kg/injection, schedule: Q01DX015 (ip), vehicle: methylcellulose (MC) 94 % of control | dose: 6.25 mg/kg/injection, schedule: Q01DX015 (ip), vehicle: methylcellulose (MC) 94 % of control | dose: 12.5 mg/kg/injection, schedule: Q01DX015 (ip), vehicle: methylcellulose (MC) 98 % of control and 92 % of control | dose: 25.0 mg/kg/injection, schedule: Q01DX015 (ip), vehicle: methylcellulose (MC) 104 % of control

CNCCc1ccc(O)cc1
inactive: [4] 104 % of control | [5] 102 % of control | [6] 104 % of control

CCOC(=O)c1ccc(C(=O)O)[n+]([O-])c1
inactive: [1] 100 % of control | [7] 92 % of control | [2] 95 % of control | [8] 100 % of control | [9] 96 % of control

CCCCCCCCCCCCCCC[n+]1cccc(C#N)c1
inactive: dose: 5.0 mg/kg/injection, schedule: Q01DX009 (ip), vehicle: saline 104 % of control | dose: 10.0 mg/kg/injection, schedule: Q01DX001 (ip), vehicle: saline 87 % of control | dose: 10.0 mg/kg/injection, schedule: Q01DX009 (ip), vehicle: saline 96 % of control | dose: 10.0 mg/kg/injection, schedule: Q04DX003 (ip), vehicle: saline 90 % of control | dose: 20.0 mg/kg/injection, schedule: Q01DX001 (ip), vehicle: saline 95 % of control and 86 % of control | dose: 20.0 mg/kg/injection, schedule: Q01DX009 (ip), vehicle: saline 107 % of control | dose: 20.0 mg/kg/injection, schedule: Q04DX003 (ip), vehicle: saline 95 % of control | dose: 40.0 mg/kg/injection, schedule: Q01DX001 (ip), vehicle: saline 101 % of control and 90 % of control | dose: 40.0 mg/kg/injection, schedule: Q04DX003 (ip), vehicle: saline 94 % of control

Cc1[nH]c2ccccc2c1C(Cc1ccccc1N)c1c(C)[nH]c2ccccc12
inactive: [10] 101 % of control | [4] 104 % of control | [5] 101 % of control | [6] 104 % of control

Cc1cc(=O)[nH]c2c(O)cc([N+](=O)[O-])cc12
inactive: dose: 50.0 mg/kg/injection, schedule: Q01DX001 (ip), vehicle: Klucel (hydroxypropylcellulose) (HPC) 111 % of control | [11] 100 % of control | [12] 97 % of control

Br/C=C/C1CCCCC1
inactive: dose: 100.0 mg/kg/injection, schedule: Q01DX009 (ip), vehicle: acetone 104 % of control | dose: 100.0 mg/kg/injection, schedule: Q04DX003 (ip), vehicle: saline 105 % of control | dose: 200.0 mg/kg/injection, schedule: Q01DX009 (ip), vehicle: acetone 123 % of control | dose: 200.0 mg/kg/injection, schedule: Q04DX003 (ip), vehicle: saline 92 % of control | dose: 400.0 mg/kg/injection, schedule: Q01DX009 (ip), vehicle: acetone 107 % of control | dose: 400.0 mg/kg/injection, schedule: Q04DX003 (ip), vehicle: saline 92 % of control

CCCCCCCCC(CCCC1CCCC1)CCCC1CCCC1
inactive: dose: 100.0 mg/kg/injection, schedule: Q01DX001 (ip), vehicle: saline with Tween-80 98 % of control | dose: 200.0 mg/kg/injection, schedule: Q01DX001 (ip), vehicle: saline with Tween-80 94 % of control | dose: 400.0 mg/kg/injection, schedule: Q01DX001 (ip), vehicle: saline with Tween-80 96 % of control

CC(C)c1cc(C(C)C)c(S(=O)(=O)Cl)c(C(C)C)c1
inactive: [10] 98 % of control | [4] 95 % of control | [5] 95 % of control | [6] 98 % of control

O=C(COc1ccc(Cl)cc1)Nc1cccnc1
inactive: dose: 25.0 mg/kg/injection, schedule: Q01DX009 (ip), vehicle: Klucel (hydroxypropylcellulose) (HPC) 100 % of control | dose: 25.0 mg/kg/injection, schedule: Q04DX003 (ip), vehicle: Klucel (hydroxypropylcellulose) (HPC) 100 % of control | dose: 50.0 mg/kg/injection, schedule: Q01DX009 (ip), vehicle: Klucel (hydroxypropylcellulose) (HPC) 92 % of control | dose: 50.0 mg/kg/injection, schedule: Q04DX003 (ip), vehicle: Klucel (hydroxypropylcellulose) (HPC) 94 % of control | [7] 103 % of control

NCCOCCOCCN
inactive: dose: 50.0 mg/kg/injection, schedule: Q01DX009 (ip), vehicle: saline 108 % of control | dose: 100.0 mg/kg/injection, schedule: Q01DX009 (ip), vehicle: saline 87 % of control

CCCN=C(C)c1ccccc1O
inactive: dose: 100.0 mg/kg/injection, schedule: Q04DX003 (ip), vehicle: acetone 97 % of control | dose: 200.0 mg/kg/injection, schedule: Q04DX003 (ip), vehicle: acetone 95 % of control

CCCCCCCCCCCCCCCCN(C(C)c1ccccc1)S(=O)(=O)c1ccc(OC)c(N)c1 (stereo not drawn)
inactive: [11] 93 % of control | [1] 94 % of control | [7] 98 % of control | [12] 88 % of control | [2] 94 % of control | [8] 98 % of control | [13] 88 % of control | [3] 95 % of control | [9] 98 % of control

O=C(O)CNS(=O)(=O)CCN1C(=O)c2ccccc2C1=O
inactive: [7] 96 % of control | [8] 92 % of control | [9] 96 % of control

O=C1c2cccc3cc([N+](=O)[O-])cc(c23)C(=O)N1O
inactive: [4] 101 % of control | [5] 97 % of control | [6] 107 % of control

Cc1cc(SC#N)ccc1O
inactive: dose: 3.0 mg/kg/injection, schedule: Q01DX009 (ip), vehicle: saline with Tween-80 94 % of control | dose: 6.0 mg/kg/injection, schedule: Q01DX009 (ip), vehicle: saline with Tween-80 102 % of control | dose: 12.0 mg/kg/injection, schedule: Q01DX009 (ip), vehicle: saline with Tween-80 102 % of control | dose: 25.0 mg/kg/injection, schedule: Q01DX009 (ip), vehicle: saline with Tween-80 102 % of control | dose: 25.0 mg/kg/injection, schedule: Q04DX002 (ip), vehicle: other 93 % of control | dose: 50.0 mg/kg/injection, schedule: Q04DX002 (ip), vehicle: other 93 % of control | dose: 100.0 mg/kg/injection, schedule: Q04DX002 (ip), vehicle: other 97 % of control

Cc1cccc(NC(=O)c2c(Cl)c(Cl)c(Cl)c(Cl)c2C(=O)O)c1C
inactive: dose: 100.0 mg/kg/injection, schedule: Q04DX002 (ip), vehicle: Klucel (hydroxypropylcellulose) (HPC) 91 % of control | dose: 200.0 mg/kg/injection, schedule: Q04DX002 (ip), vehicle: Klucel (hydroxypropylcellulose) (HPC) 100 % of control

c1cc[c]2c(c1)Oc1cccc[c]1[Sn]21[c]2ccccc2Oc2cccc[c]21
inactive: dose: 100.0 mg/kg/injection, schedule: Q01DX001 (ip), vehicle: other 91 % of control | dose: 200.0 mg/kg/injection, schedule: Q01DX001 (ip), vehicle: other 96 % of control | dose: 400.0 mg/kg/injection, schedule: Q01DX001 (ip), vehicle: other 89 % of control

CN(C)C(=O)N1CN(c2ccccc2)C2(CCN(CC3COc4ccccc4O3)CC2)C1=O (stereo not drawn)
inactive: [11] 101 % of control | [12] 97 % of control | [13] 106 % of control
